Where a name gives a salt, the structure may show the parent alone.
How the values were obtained:
[1] = tested on: artificial generation of bradykinin; test: Evaluation of inhibitors preventing the artificial formation of bradykinin for generation of blank plasma; set-up: species or system human; conditions: plasma from prespiked S-Monovettes stored at 21 °C, analysed after 30 min, 1.5 h and 4.5 h, n = 3
Description: Due to the endogenous presence of kinins in human plasma, it was aimed to develop a surrogate matrix mimicking human biological samples at best. Therefore, distinct serine protease inhibitors were evaluated for their ability to prevent the artificial generation of bradykinin after blood sampling. […] Therefore, plasma was drawn into prespiked S-Monovettes® and aliquots of the plasma stored at 21 °C were analysed after 30 min, 1.5 h and 4.5 h. The following inhibitors were investigated and compared to plasma without inhibitor (each n = 3): 4-(2-aminoethyl)benzolsulfonylfluoride (AEBSF), hexadimethrine bromide, aprotinin, nafamostat mesylate and leupeptin. Additionally, the final blank generation protocol was evaluated for six human sources, whose generated blanks were analysed in triplicate to ensure the depletion of endogenous peptides across multiple sources.

[2] = assay type: in vitro ADME, human
Description: In this study, human blank plasma was generated by sampling blood into trisodium citrate S-Monovettes® spiked with hexadimethrine bromide and nafamostat mesylate to prevent the artificial generation of bradykinin. After centrifugation at 2000×g for 10 min at room temperature, the plasma was left at room temperature for 4 h to enable degradation of short-lived kinins. The blank plasma generated was stored at −20 °C until use.
Before preparation of quality control (QC) or calibration curve samples, a protease inhibitor was added to blank plasma samples, following a protocol derived from Nussberger et al.. Solid-phase extraction (SPE) was performed using 96-well Oasis weak cation exchange (WCX) μ-elution plates (Waters, Milford, MA, USA). The wells were conditioned with 200 μL methanol, followed by 200 μL water. […]
Finally, stability was examined using three replicates of four QC levels (high [750.0 pg/mL], mid [125.0 pg/mL] and low [31.1 pg/mL and 7.8 pg/mL]). […] Freeze-thaw stability was determined after one, two and four cycles of complete thawing and refreezing of samples at −80 °C. Furthermore, long-term stability of the plasma samples was analysed after 1, 2 and 4 weeks. For all stability investigations, the maximum deviation of the calculated concentration to the nominal concentration compared to a freshly prepared calibration curve was ≤15% (RE).

| Compound | Prevention of artificial generation of bradykinin (in words) [1] | Freeze-thaw stability (in words) [2] |
| --- | --- | --- |
| CC(=O)N[C@@H](CC(C)C)C(=O)N[C@@H](CC(C)C)C(=O)N[C@H](C=O)CCCNC(=N)N [leupeptin] | only decreased the formation of bradykinin at the 0.5 h and 1.5 h timepoints |  |
| aprotinin | did not sufficiently prevent the artificial generation of bradykinin |  |
| bradykinin 1-7 (RPPGFSP; Bradykinin; UniProt P01042 381-387, looked up, fragment) |  | trended towards a decrease |
| hexadimethrine bromide | lowest levels of bradykinin were detected |  |
| NCCc1ccc(S(=O)(=O)F)cc1 [AEBSF, 4-(2-aminoethyl)benzolsulfonylfluoride] | did not sufficiently prevent the artificial generation of bradykinin |  |
| N=C(N)c1ccc2cc(OC(=O)c3ccc(N=C(N)N)cc3)ccc2c1 [nafamostat, nafamostat mesylate] | only decreased the formation of bradykinin at the 0.5 h and 1.5 h timepoints |  |
| bradykinin 1-5 (RPPGF; Bradykinin; UniProt P01042 381-385, looked up, fragment) |  | trended towards a decrease |
